Experimental data: patent US12391664B2, “GluN2C/D subunit selective antagonists of the N-methyl-D-aspartate receptor” (Emory University, priority 2018, dated 2025)
Where two headings read alike, the source gives them in different places.

How the values were obtained:
Format in all cases: cell-based
[1] = target: T1, recombinant rat GluN1/GluN2A (Rattus norvegicus, UniProt Q00959); assay: Two-electrode voltage-clamp recordings in Xenopus laevis oocytes, GluN2A; details: for I3 μM/Icontrol (mean ± SEM, %) GluN2A: 3 μM compound with 100 μM glutamate and 30 μM glycine, control set as 1; for GluN2A IC50: oocytes, 100 μM glutamate and 30 μM glycine
T1 construct: expressed in transfected cells; host or cells: Xenopus laevis oocytes injected with cRNA (GluN1:GluN2 ratio 1:2)
T1 sequence (Q00959 23-1464, other chains not shown): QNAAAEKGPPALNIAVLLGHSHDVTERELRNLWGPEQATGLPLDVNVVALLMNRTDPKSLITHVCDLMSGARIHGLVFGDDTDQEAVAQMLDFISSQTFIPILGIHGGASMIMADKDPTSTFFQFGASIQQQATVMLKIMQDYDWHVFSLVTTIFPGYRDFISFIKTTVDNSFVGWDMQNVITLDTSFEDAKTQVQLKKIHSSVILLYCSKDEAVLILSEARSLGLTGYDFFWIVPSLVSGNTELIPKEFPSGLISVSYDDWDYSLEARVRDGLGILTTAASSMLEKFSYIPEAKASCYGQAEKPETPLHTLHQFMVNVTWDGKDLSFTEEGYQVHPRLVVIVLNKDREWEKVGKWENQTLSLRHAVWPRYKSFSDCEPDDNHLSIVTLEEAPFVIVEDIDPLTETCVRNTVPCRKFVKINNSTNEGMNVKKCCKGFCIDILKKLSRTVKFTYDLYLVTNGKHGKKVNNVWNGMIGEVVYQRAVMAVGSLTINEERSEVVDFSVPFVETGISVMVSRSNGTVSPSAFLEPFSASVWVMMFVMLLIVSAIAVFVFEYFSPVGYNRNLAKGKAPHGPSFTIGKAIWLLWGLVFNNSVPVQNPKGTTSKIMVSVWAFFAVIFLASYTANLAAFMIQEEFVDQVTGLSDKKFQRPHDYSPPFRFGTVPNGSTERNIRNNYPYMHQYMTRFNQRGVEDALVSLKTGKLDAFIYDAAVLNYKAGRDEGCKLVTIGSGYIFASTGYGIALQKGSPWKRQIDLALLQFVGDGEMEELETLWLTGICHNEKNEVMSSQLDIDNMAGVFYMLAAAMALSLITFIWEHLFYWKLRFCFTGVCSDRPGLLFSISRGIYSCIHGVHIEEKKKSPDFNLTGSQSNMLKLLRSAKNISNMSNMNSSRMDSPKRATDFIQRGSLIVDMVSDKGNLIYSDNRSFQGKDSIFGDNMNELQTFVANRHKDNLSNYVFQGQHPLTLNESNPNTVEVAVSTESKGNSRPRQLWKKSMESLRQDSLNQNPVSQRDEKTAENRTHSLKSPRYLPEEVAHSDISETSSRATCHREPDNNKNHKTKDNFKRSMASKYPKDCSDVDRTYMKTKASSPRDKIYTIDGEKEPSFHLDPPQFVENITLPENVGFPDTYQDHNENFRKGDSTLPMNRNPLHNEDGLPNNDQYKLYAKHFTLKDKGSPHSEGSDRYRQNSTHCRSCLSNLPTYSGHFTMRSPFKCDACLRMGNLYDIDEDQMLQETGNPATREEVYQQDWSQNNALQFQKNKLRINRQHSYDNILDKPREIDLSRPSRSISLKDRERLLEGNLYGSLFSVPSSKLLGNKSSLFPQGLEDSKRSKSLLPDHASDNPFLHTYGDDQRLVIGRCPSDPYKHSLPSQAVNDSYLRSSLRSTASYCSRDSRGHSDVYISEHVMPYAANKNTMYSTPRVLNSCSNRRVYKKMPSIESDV
Experimental: (§1) All target compounds were evaluated for activity by the Traynelis laboratory at Emory University using two-electrode voltage-clamp recordings performed in Xenopus laevis oocytes expressing recombinant GluN2A-D subunits (Table 1). […] Two ester compounds 997-65 and 997-66 also performed no inhibition at GluN2A to GluN2D receptors. […] Consequently, for the compounds that Acker et al. already published, it was necessary to increase the concentration to 100 μM when collecting data for a concentration effect curve. […] Therefore, under this condition, we can only conclude that compound 997-67 remained potent at GluN2C/D-containing receptors, but its selectivity over GluN2A- and GluN2B-containing receptors could not be compared to 997-57. […] Finally, replacing the carboxylic acid to the bio-isostere amide yielded compounds 997-96 and 997-115, which dropped the potency 2- to 4-fold in comparison to their corresponding acids 997-74 and 997-114.
(§2) Two-electrode voltage-clamp recordings were performed in Xenopus laevis oocytes that were injected with mRNA to express recombinant rat GluN1/GluN2A, GluN1/GluN2B, GluN1/GluN2C, and GluN1/GluN2D. The recordings using unfertilized oocytes from Xenopus laevis were permitted by Emory University Institutional Animal Care and Use Committee (IACUC). An automatic injector (Nanoject II, Drummond Scientific) was used for cRNA injection using the pipettes filled with mineral oil. The cRNA that transcribed in vitro via the mMessage Machine kit (Ambion) was diluted with nuclease-free water, and then injected at GluN1/GluN2 with a ratio of 1:2. The oocytes were stored in Barth's solution that contained 88 mM NaCl, 5.0 mM Tris-HCl, 2.4 mM NaHCO3, 1.0 mM KCl, 0.84 mM MgSO4, 0.41 mM CaCl2, 0.33 mM Ca(NO3)2, 0.1 mg/ml gentamycin sulfate, 1.0 U/ml penicillin, and 1 μg/ml streptomycin at a pH of 7.4 and temperatures of 15-17° C. for two to five days before the two-electrode voltage-clamp recordings. When recording, the oocytes were placed in a perfusion chamber and continually washed with the recording solution comprised of 90 mM NaCl, 1.0 mM KCl, 0.50 mM BaCl2, 0.005 mM EDTA, and 10 mM HEPES at a pH of 7.4 and a temperature of 23° C. Glass electrodes with a tip resistance of 0.5 to 2.5 MΩ were obtained from thin-walled glass capillary tubes. Voltage electrodes and current electrodes were filled with 0.3 M and 3.0 M KCl, respectively. The recordings were executed with the oocytes membrane potential holding at −40 m V by an OC-725 amplifier (Warner Instrument Co). All compounds were dissolved in dimethyl sulfoxide (DMSO) as 20 mM stock solutions and future diluted to reach the desired concentration (0.05-0.5% (vol/vol) DMSO) in recording solution comprised of 30 μM glycine and 100 μM glutamate. Each compound was recorded 3-7 times in the least 4 oocytes from at least 2 different Xenopus laevis.
(§3) To evaluate the inhibition of compounds, the concentration-response curve was fitted with the average two-electrode voltage-clamp recording results with the equation
(§4) [formula] • where IC50 is the concentration of compounds that inhibit half maximal of the current response and N is the Hill slope.

[2] = target: T2, recombinant rat GluN1/GluN2B (Rattus norvegicus, UniProt Q00960); assay: Two-electrode voltage-clamp recordings in Xenopus laevis oocytes, GluN2B; details: for I3 μM/Icontrol (mean ± SEM, %) GluN2B: 3 μM compound with 100 μM glutamate and 30 μM glycine, control set as 1; for GluN2B IC50: oocytes, 100 μM glutamate and 30 μM glycine
T2 construct: expressed in transfected cells; host or cells: Xenopus laevis oocytes injected with cRNA (GluN1:GluN2 ratio 1:2)
T2 sequence (Q00960 27-1482, other chains not shown): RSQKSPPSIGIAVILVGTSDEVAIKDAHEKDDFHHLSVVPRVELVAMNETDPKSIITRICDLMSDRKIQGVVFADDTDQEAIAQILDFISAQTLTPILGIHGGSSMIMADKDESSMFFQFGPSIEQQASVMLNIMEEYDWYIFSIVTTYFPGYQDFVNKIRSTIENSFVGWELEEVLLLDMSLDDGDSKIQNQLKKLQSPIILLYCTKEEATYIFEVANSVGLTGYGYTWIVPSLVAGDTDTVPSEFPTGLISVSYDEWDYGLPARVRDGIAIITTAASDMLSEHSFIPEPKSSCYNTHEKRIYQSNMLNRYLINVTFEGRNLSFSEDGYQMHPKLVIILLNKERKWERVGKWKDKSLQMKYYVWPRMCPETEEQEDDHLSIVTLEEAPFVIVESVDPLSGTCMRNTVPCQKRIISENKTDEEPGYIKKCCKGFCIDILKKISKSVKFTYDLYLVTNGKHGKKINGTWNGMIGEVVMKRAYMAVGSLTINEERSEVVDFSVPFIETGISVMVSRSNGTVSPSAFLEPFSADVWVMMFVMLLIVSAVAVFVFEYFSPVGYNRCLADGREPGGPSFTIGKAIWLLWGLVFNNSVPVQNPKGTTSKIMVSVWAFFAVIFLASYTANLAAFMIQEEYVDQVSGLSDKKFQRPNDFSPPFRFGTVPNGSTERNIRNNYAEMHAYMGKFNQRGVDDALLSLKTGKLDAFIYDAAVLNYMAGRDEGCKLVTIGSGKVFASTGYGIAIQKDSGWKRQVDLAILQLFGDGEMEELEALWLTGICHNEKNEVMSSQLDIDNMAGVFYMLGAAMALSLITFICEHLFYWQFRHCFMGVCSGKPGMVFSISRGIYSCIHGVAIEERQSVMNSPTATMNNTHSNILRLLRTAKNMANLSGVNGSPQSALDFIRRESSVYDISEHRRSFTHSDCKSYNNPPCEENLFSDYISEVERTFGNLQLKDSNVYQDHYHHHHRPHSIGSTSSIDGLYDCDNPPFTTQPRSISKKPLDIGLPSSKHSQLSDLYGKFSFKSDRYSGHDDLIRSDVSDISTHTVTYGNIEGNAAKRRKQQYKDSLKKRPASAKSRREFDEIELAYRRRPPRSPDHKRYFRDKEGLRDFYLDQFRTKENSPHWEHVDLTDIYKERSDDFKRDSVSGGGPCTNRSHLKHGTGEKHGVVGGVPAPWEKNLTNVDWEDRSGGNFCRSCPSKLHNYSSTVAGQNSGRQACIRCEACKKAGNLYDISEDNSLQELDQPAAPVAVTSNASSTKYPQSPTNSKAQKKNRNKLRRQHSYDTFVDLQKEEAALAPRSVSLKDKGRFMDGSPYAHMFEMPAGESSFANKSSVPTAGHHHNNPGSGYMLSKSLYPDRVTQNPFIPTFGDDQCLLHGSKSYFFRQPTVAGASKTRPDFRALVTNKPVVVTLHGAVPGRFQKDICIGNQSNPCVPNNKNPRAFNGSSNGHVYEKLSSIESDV
Experimental: as §1, §2, §3, §4

[3] = target: T3, recombinant rat GluN1/GluN2C (Rattus norvegicus, UniProt P35439+Q00961); assay: Two-electrode voltage-clamp recordings in Xenopus laevis oocytes, GluN2C
T3 construct: expressed in transfected cells; host or cells: Xenopus laevis oocytes injected with cRNA (GluN1:GluN2 ratio 1:2)
T3 sequence (Q00961 20-1237, other chains not shown): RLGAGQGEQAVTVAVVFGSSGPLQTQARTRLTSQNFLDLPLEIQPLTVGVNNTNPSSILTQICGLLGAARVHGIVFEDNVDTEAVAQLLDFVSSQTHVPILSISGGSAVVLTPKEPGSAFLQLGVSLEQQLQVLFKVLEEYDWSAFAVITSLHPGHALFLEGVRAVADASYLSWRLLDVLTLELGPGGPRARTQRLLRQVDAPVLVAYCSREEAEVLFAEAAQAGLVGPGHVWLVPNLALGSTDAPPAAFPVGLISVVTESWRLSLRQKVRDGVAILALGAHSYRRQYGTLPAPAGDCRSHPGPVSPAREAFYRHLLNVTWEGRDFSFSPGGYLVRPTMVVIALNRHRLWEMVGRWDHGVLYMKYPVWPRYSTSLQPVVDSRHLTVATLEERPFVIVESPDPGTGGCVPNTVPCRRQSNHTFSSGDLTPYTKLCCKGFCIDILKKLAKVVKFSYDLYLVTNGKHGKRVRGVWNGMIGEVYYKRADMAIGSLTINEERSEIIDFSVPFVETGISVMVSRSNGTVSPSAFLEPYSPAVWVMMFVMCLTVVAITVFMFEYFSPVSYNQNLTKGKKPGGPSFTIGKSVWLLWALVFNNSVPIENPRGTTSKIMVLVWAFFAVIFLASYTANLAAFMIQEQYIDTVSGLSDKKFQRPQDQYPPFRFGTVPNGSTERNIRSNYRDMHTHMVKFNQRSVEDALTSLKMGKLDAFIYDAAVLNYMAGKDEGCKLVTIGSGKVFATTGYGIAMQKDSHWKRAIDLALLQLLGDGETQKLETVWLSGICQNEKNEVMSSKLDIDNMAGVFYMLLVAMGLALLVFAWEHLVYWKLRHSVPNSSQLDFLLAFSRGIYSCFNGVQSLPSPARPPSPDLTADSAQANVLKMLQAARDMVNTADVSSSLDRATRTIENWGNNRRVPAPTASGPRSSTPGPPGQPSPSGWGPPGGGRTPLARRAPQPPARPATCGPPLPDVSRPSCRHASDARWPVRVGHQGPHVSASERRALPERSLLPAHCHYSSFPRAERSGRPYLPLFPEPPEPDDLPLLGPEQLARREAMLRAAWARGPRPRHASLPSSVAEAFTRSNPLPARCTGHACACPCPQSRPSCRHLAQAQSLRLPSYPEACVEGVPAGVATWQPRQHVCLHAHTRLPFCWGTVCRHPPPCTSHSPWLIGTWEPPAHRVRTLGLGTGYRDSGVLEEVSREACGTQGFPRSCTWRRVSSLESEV
Experimental: as §1, §2, §3, §4

[4] = target: T4, recombinant rat GluN1/GluN2C (Rattus norvegicus, UniProt Q00961); assay: as above; details: for I3 μM/Icontrol (mean ± SEM, %) GluN2C: 3 μM compound with 100 μM glutamate and 30 μM glycine, control set as 1; for GluN2C IC50: oocytes, 100 μM glutamate and 30 μM glycine
T4 construct: expressed in transfected cells; host or cells: Xenopus laevis oocytes injected with cRNA (GluN1:GluN2 ratio 1:2)
T4 sequence (Q00961 20-1237, other chains not shown): as above
Experimental: as §1, §2, §3, §4

[5] = target: T5, recombinant rat GluN1/GluN2D (Rattus norvegicus, UniProt P35439+Q62645); assay: Two-electrode voltage-clamp recordings in Xenopus laevis oocytes, GluN2D
T5 construct: expressed in transfected cells; host or cells: Xenopus laevis oocytes injected with cRNA (GluN1:GluN2 ratio 1:2)
Experimental: as §1, §2, §3, §4

[6] = target: T6, recombinant rat GluN1/GluN2D (Rattus norvegicus, UniProt Q62645); assay: as above; details: for I3 μM/Icontrol (mean ± SEM, %) GluN2D: 3 μM compound with 100 μM glutamate and 30 μM glycine, control set as 1; for 2B IC50 / 2D IC50: ratio of IC50 values; for GluN2D IC50: oocytes, 100 μM glutamate and 30 μM glycine
T6 construct: expressed in transfected cells; host or cells: Xenopus laevis oocytes injected with cRNA (GluN1:GluN2 ratio 1:2)
Experimental: as §1, §2, §3, §4

[7] = target: T7, recombinant rat GluN1/GluN2B (Rattus norvegicus, UniProt P35439+Q00960); assay: Two-electrode voltage-clamp recordings in Xenopus laevis oocytes, GluN2B; details: oocytes, 100 μM glutamate and 30 μM glycine
T7 construct: expressed in transfected cells; host or cells: Xenopus laevis oocytes injected with cRNA (GluN1:GluN2 ratio 1:2)
Experimental: as §1, §2, §3, §4

[8] = mean IC50 with bottom and top 95% confidence interval, read-out: Avg. GluN2C IC50 (95% CI)
[9] = oocytes, 100 μM glutamate and 30 μM glycine, read-out: GluN2C IC50
[10] = mean IC50 with bottom and top 95% confidence interval, read-out: Avg. GluN2D IC50 (95% CI)
[11] = oocytes, 100 μM glutamate and 30 μM glycine, read-out: GluN2D IC50

## O=C(CC(F)(F)CO)N1N=C(c2c(-c3ccc(Cl)cc3)c3ccccc3[nH]c2=O)CC1c1ccc(Cl)cc1 (single isomer, unassigned; (-)) [(−)-997-67]
[1]; listed as (−)-67
  I3 μM/Icontrol (mean ± SEM, %) GluN2A: 100 ± 0.89%
[2]; listed as (−)-67
  I3 μM/Icontrol (mean ± SEM, %) GluN2B: 95 ± 2.2%
[3]; [8]
  IC50: 2.71 µM
[3]; [9]
  IC50: 1.4 µM
[4]; listed as (−)-67
  I3 μM/Icontrol (mean ± SEM, %) GluN2C: 42 ± 2.8%
[5]; [10]
  IC50: 0.97 µM
[5]; [11]
  IC50: 0.62 µM
[6]; listed as (−)-67
  I3 μM/Icontrol (mean ± SEM, %) GluN2D: 26 ± 3.2%
[6]; (−)- versus (+)-enantiomer
  fold more potent than the (+)-enantiomer at GluN2D: 6 fold

## O=C(O)CC(F)(F)C(=O)N1N=C(c2c(-c3ccc(Cl)cc3)c3ccccc3[nH]c2=O)C[C@@H]1c1ccc(Cl)cc1 [(+)-997-74]
[1]
  I3 μM/Icontrol (mean ± SEM, %) GluN2A: 95 ± 0.47%
[2]
  I3 μM/Icontrol (mean ± SEM, %) GluN2B: 87 ± 1.4%
[3]; [8]
  IC50: 3.1 µM
[3]; [9]
  IC50: 3.4 µM
[4]
  I3 μM/Icontrol (mean ± SEM, %) GluN2C: 56 ± 3.8%
[5]; [10]
  IC50: 2.24 µM
[5]; [11]
  IC50: 3.9 µM
[6]
  I3 μM/Icontrol (mean ± SEM, %) GluN2D: 55 ± 2.7%

## O=C(O)CC(F)(F)C(=O)N1N=C(c2ccccc2-c2ccc(Cl)cc2)CC1c1ccc(F)cc1 (stereo not drawn) [997-116, 4-(3-(4′-chloro-[1,1′-biphenyl]-2-yl)-5-(4-fluorophenyl)-4,5-dihydro-1H-pyrazol-1-yl)-3,3-difluoro-4-oxobutanoic acid]
[1]
  GluN2A IC50: NE (NE indicates less than 50% inhibition at 30 μM.)
[7]
  IC50: 23.1 µM
[3]; [9]
  IC50: 12.1 µM
[5]; [11]
  IC50: 7.41 µM
[6]
  2B IC50 / 2D IC50: 3

## O=c1[nH]c2ccccc2c(-c2ccc(Cl)cc2)c1C1=NNC(c2ccncc2)C1 (stereo not drawn) [997-78, 4-(4-chlorophenyl)-3-[5-(pyridin-4-yl)-4,5-dihydro-1H-pyrazol-3-yl]quinolin-2(1H)-one]
[1]
  GluN2A IC50: NE (NE indicates less than 50% inhibition at 30 μM.)
[7]
  IC50: 54 µM
[2]
  GluN2B IC50: weak potency
[3]; [9]
  IC50: 20 µM
[4]
  GluN2C IC50: weak potency
[5]; [11]
  IC50: 19 µM
[6]
  GluN2D IC50: weak potency
  2B IC50 / 2D IC50: 3

## O=C(O)CC(F)(F)C(=O)N1N=C(c2ccccc2-c2ccc(C(F)(F)F)cc2)CC1c1ccc(Cl)cc1 (stereo not drawn) [997-124, 4-(5-(4-chlorophenyl)-3-(4′-(trifluoromethyl)-[1,1′-biphenyl]-2-yl)-4,5-dihydro-1H-pyrazol-1-yl)-3,3-difluoro-4-oxobutanoic acid]
[1]
  GluN2A IC50: NE (NE indicates less than 50% inhibition at 30 μM.)
[7]
  IC50: 14.8 µM
[3]; [9]
  IC50: 3.63 µM
[5]; [11]
  IC50: 3.57 µM

## Cc1c(C2=NNC(c3ccc(Cl)cc3)C2)c(=O)[nH]c2ccccc12 (stereo not drawn) [997-77, 3-(5-(4-chlorophenyl)-4,5-dihydro-1H-pyrazol-3-yl)-4-methylquinolin-2(1H)-one]
[1]
  GluN2A IC50: NE (NE indicates less than 50% inhibition at 30 μM.)
[2]
  GluN2B IC50: NE (NE indicates less than 50% inhibition at 30 μM.)
[4]
  GluN2C IC50: NE (NE indicates less than 50% inhibition at 30 μM.)
[6]
  GluN2D IC50: NE (NE indicates less than 50% inhibition at 30 μM.)

## O=C(CC(F)(F)CO)N1N=C(c2c(-c3ccc(Cl)cc3)c3ccccc3[nH]c2=O)CC1c1ccc(Cl)cc1 (single isomer, unassigned; (+)) [(+)-997-67]
[1]; listed as (+)-67
  I3 μM/Icontrol (mean ± SEM, %) GluN2A: 98 ± 2.1%
[2]; listed as (+)-67
  I3 μM/Icontrol (mean ± SEM, %) GluN2B: 87 ± 2.8%
[3]; [9]
  IC50: 8.5 µM
[4]; listed as (+)-67
  I3 μM/Icontrol (mean ± SEM, %) GluN2C: 74 ± 2.1%
[5]; [10]
  IC50: 7.02 µM
[5]; [11]
  IC50: 3.6 µM
[6]; listed as (+)-67
  I3 μM/Icontrol (mean ± SEM, %) GluN2D: 57 ± 3.5%
